Results taken from PubChem BioAssay AID2060901 (Molecular Pharmacology Branch, DTP, NCI, 2025).
One block for each compound: values may come before it.

System: 422866-222-R5-J1-PDC complex spheroids viability
Assay: Anticancer human tumor 422866-222-R5-J1-PDC patient-derived pancreatic adenocarcinoma cell line growth inhibition [RAS]
Details: for IC50: curve of first compound; for viability, T/C: stronger effect = lower value
Method in brief: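 Agents were tested in combination matrices in half-log decrements from a top concentration at or near clinical Cmax (10 microM if undetermined). Targets were multi-cell spheroids of tumour lines plus HUVEC and MSC stromal cells.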

[1] = second compound 0.0316 µM, first compound 0.00316 µM
[2] = second compound 0.0316 µM, first compound 0.01 µM
[3] = second compound 0.0316 µM, first compound 0.0316 µM
[4] = second compound 0.0316 µM, first compound 0.1 µM
[5] = second compound 0.0316 µM, first compound 0.316 µM
[6] = second compound 0.0316 µM, first compound 1 µM
[7] = second compound 0.1 µM, first compound 0.00316 µM
[8] = second compound 0.1 µM, first compound 0.01 µM
[9] = second compound 0.1 µM, first compound 0.0316 µM
[10] = second compound 0.1 µM, first compound 0.1 µM
[11] = second compound 0.1 µM, first compound 0.316 µM
[12] = second compound 0.1 µM, first compound 1 µM
[13] = second compound 0.316 µM, first compound 0.00316 µM
[14] = second compound 0.316 µM, first compound 0.01 µM
[15] = second compound 0.316 µM, first compound 0.0316 µM
[16] = second compound 0.316 µM, first compound 0.1 µM
[17] = second compound 0.316 µM, first compound 0.316 µM
[18] = second compound 0.316 µM, first compound 1 µM
[19] = second compound 1 µM, first compound 0.00316 µM
[20] = second compound 1 µM, first compound 0.01 µM
[21] = second compound 1 µM, first compound 0.0316 µM
[22] = second compound 1 µM, first compound 0.1 µM
[23] = second compound 1 µM, first compound 0.316 µM
[24] = second compound 1 µM, first compound 1 µM
[25] = second compound 0.00316 µM, first compound 0.0316 µM
[26] = second compound 0.00316 µM, first compound 0.1 µM
[27] = second compound 0.00316 µM, first compound 0.316 µM
[28] = second compound 0.00316 µM, first compound 1 µM
[29] = second compound 0.01 µM, first compound 0.0316 µM
[30] = second compound 0.01 µM, first compound 0.1 µM
[31] = second compound 0.01 µM, first compound 0.316 µM
[32] = second compound 0.01 µM, first compound 1 µM
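Further: spheroids exposed to compounds for 7 days.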
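Wherever viability, T/C is given: 100% = DMSO vehicle control viability.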

IC50 (second compound 0.0316 µM): 113 nM
IC50 (second compound 0.1 µM): 29.2 nM
IC50 (second compound 0.316 µM): 15.9 nM
IC50 (second compound 1 µM): < 3.16 nM
IC50 (second compound 3.16 µM): < 3.16 nM
IC50 (second compound 10 µM): < 3.16 nM
SMILES: Nc1ccn(C2OC(CO)C(O)C2(F)F)c(=O)n1 (stereo unspecified) + C#Cc1c(F)ccc2cc(O)cc(-c3ncc4c(N5CC6CCC(C5)N6)nc(OCC56CCCN5CC(F)C6)nc4c3F)c12
viability, T/C [1]: 90.8%
viability, T/C [2]: 84.9%
viability, T/C [3]: 65.7%
viability, T/C [4]: 51.1%
viability, T/C [5]: 42.1%
viability, T/C [6]: 34.1%
viability, T/C [7]: 108%
viability, T/C [8]: 65.6%
viability, T/C [9]: 52.4%
viability, T/C [10]: 37.6%
viability, T/C [11]: 39.6%
viability, T/C [12]: 38.5%
viability, T/C [13]: 63.9%
viability, T/C [14]: 49.8%
viability, T/C [15]: 48.8%
viability, T/C [16]: 45.6%
viability, T/C [17]: 38.1%
viability, T/C [18]: 41.9%
viability, T/C [19]: 41.2%
viability, T/C [20]: 41.3%
viability, T/C [21]: 32.4%
viability, T/C [22]: 35.9%
viability, T/C [23]: 33.3%
viability, T/C [24]: 25.5%
viability, T/C (second compound 3.16 µM, first compound 0.00316 µM): 25.8%
viability, T/C (second compound 3.16 µM, first compound 0.01 µM): 29.7%
viability, T/C (second compound 3.16 µM, first compound 0.0316 µM): 24.5%
viability, T/C (second compound 3.16 µM, first compound 0.1 µM): 27.7%
viability, T/C (second compound 3.16 µM, first compound 0.316 µM): 23.4%
viability, T/C (second compound 3.16 µM, first compound 1 µM): 23%
viability, T/C (second compound 10 µM, first compound 0.00316 µM): 24.8%
viability, T/C (second compound 10 µM, first compound 0.01 µM): 26.2%
viability, T/C (second compound 10 µM, first compound 0.0316 µM): 23.3%
viability, T/C (second compound 10 µM, first compound 0.1 µM): 19.8%
viability, T/C (second compound 10 µM, first compound 0.316 µM): 21.6%
viability, T/C (second compound 10 µM, first compound 1 µM): 17.8%

IC50 (second compound 0.00316 µM): < 31.6 nM
IC50 (second compound 0.01 µM): < 31.6 nM
IC50 (second compound 0.0316 µM): < 31.6 nM
IC50 (second compound 0.1 µM): < 31.6 nM
IC50 (second compound 0.316 µM): < 31.6 nM
IC50 (second compound 1 µM): < 31.6 nM
SMILES: CC(Nc1ccc2c(c1)OCCn1cc(N3C(=O)OCC3C(F)F)nc1-2)C(N)=O (stereo unspecified) + C=CC(=O)N1CCN(c2nc(OCC3CCCN3C)nc3c(F)c(-c4nc(N)cc(C)c4C(F)(F)F)c(Cl)cc23)C(C)C1
viability, T/C [25]: 20.8%
viability, T/C [26]: 19.9%
viability, T/C [27]: 12.6%
viability, T/C [28]: 11%
viability, T/C (second compound 0.00316 µM, first compound 3.16 µM): 7.97%
viability, T/C (second compound 0.00316 µM, first compound 10 µM): 7.01%
viability, T/C [29]: 19.1%
viability, T/C [30]: 18%
viability, T/C [31]: 13.5%
viability, T/C [32]: 6.65%
viability, T/C (second compound 0.01 µM, first compound 3.16 µM): 7.17%
viability, T/C (second compound 0.01 µM, first compound 10 µM): 4.82%
viability, T/C [3]: 24.5%
viability, T/C [4]: 14.3%
viability, T/C [5]: 9.64%
viability, T/C [6]: 7.15%
viability, T/C (second compound 0.0316 µM, first compound 3.16 µM): 5.78%
viability, T/C (second compound 0.0316 µM, first compound 10 µM): 4.99%
viability, T/C [9]: 14.6%
viability, T/C [10]: 10.9%
viability, T/C [11]: 9.29%
viability, T/C [12]: 8.93%
viability, T/C (second compound 0.1 µM, first compound 3.16 µM): 5.79%
viability, T/C (second compound 0.1 µM, first compound 10 µM): 5.64%
viability, T/C [15]: 18.3%
viability, T/C [16]: 11%
viability, T/C [17]: 9.82%
viability, T/C [18]: 6.95%
viability, T/C (second compound 0.316 µM, first compound 3.16 µM): 6.91%
viability, T/C (second compound 0.316 µM, first compound 10 µM): 7.16%
viability, T/C [21]: 16.5%
viability, T/C [22]: 15.8%
viability, T/C [23]: 9.93%
viability, T/C [24]: 7.52%
viability, T/C (second compound 1 µM, first compound 3.16 µM): 6.84%
viability, T/C (second compound 1 µM, first compound 10 µM): 7.05%

IC50 (second compound 0.00316 µM): < 3.16 nM
IC50 (second compound 0.01 µM): < 3.16 nM
IC50 (second compound 0.0316 µM): < 3.16 nM
IC50 (second compound 0.1 µM): < 3.16 nM
IC50 (second compound 0.316 µM): < 3.16 nM
IC50 (second compound 1 µM): < 3.16 nM
SMILES: Nc1ccn(C2OC(CO)C(O)C2(F)F)c(=O)n1 (stereo unspecified) + C=CC(=O)N1CCN(c2nc(OCC3CCCN3C)nc3c(F)c(-c4nc(N)cc(C)c4C(F)(F)F)c(Cl)cc23)C(C)C1
viability, T/C (second compound 0.00316 µM, first compound 0.00316 µM): 25.5%
viability, T/C (second compound 0.00316 µM, first compound 0.01 µM): 26.6%
viability, T/C [25]: 21.8%
viability, T/C [26]: 18.7%
viability, T/C [27]: 14.8%
viability, T/C [28]: 14.9%
viability, T/C (second compound 0.01 µM, first compound 0.00316 µM): 26.6%
viability, T/C (second compound 0.01 µM, first compound 0.01 µM): 22.7%
viability, T/C [29]: 21.7%
viability, T/C [30]: 15.7%
viability, T/C [31]: 15.3%
viability, T/C [32]: 17%
viability, T/C [1]: 27.5%
viability, T/C [2]: 19.9%
viability, T/C [3]: 19.3%
viability, T/C [4]: 16.9%
viability, T/C [5]: 15.9%
viability, T/C [6]: 14.1%
viability, T/C [7]: 21.9%
viability, T/C [8]: 21.6%
viability, T/C [9]: 18.6%
viability, T/C [10]: 16.4%
viability, T/C [11]: 14.8%
viability, T/C [12]: 14.6%
viability, T/C [13]: 24.8%
viability, T/C [14]: 20.4%
viability, T/C [15]: 20%
viability, T/C [16]: 18.1%
viability, T/C [17]: 16.7%
viability, T/C [18]: 17.4%
viability, T/C [19]: 22.9%
viability, T/C [20]: 19.7%
viability, T/C [21]: 19%
viability, T/C [22]: 14.2%
viability, T/C [23]: 18%
viability, T/C [24]: 17.4%
